The source of these data is US9492462B2, “Composition for elastin production” (HUMAN MATRIX SCIENCES, LLC, priority 2007, dated 2016).

Type in all cases: cell-based, human
Experiment [1] has as its system normal skin fibroblasts. Briefly: Elastin immunostaining in 7-day cultures of normal skin fibroblasts. The protocol: (§1) Biological effects of aldosterone and spironolactone were tested in cultures of dermal fibroblasts derived from normal skin, stretch-marked skin and dermal scars derived from Caucasian females, of different ages ranging from 30-38 years old. All fibroblasts were originally isolated by allowing them to migrate out of skin explants and then passaged by trypsinization and maintained in alpha-minimum essential medium supplemented with 20 mM Hepes, 1% antibiotics and antimycotics, 1% L-Glutamate and 2% fetal bovine serum (FBS) as previously described Hinek et al. “Impaired elastic-fiber assembly by fibroblasts from patients with either Morquio B disease or infantile GM1-gangliosidosis is linked to deficiency in the 67-kD spliced variant of beta-galactosidase.” Am J Hum Genet. 2000 July; 67(1):23-36 hereby incorporated by reference in its entirety. In all experiments, consecutive passages 3-4 were tested. Cells were densely plated (50×10^5 cells/dish) to reach confluency and then cultured for 7 days in the presence and absence of different concentrations of (10 nM-1 μM) aldosterone, 2 μM spironolactone, alone or in combinations with other reagents, as described in figure legends.
7-day-old cultures of fibroblasts, which produce abundant ECM, were assessed. All cultures were fixed in cold 100% methanol at −20° C. for 30 min, and then incubated for 1 hour with 2 μg/ml of polyclonal antibody to tropoelastin. Cultures were then incubated for an additional hour with appropriate fluorescein-conjugated secondary antibody (GAR-FITC). Nuclei were counterstained with propidium iodide. Morphometric analysis of five separate cultures in each experimental group, immunostained with antibodies recognizing extracellular matrix components, was performed using a computerized video analysis system (Image-Pro Plus software 3.0, Media Cybernetics, Silver Spring, Md.) as described previously in Hinek et al. “Decreased elastin deposition and high proliferation of fibroblasts from Costello syndrome are related to functional deficiency in the 67-kD elastin-binding protein.” Am J Hum Genet. 2000 March; 66(3):859-72 and Hinek and Wilson, “Impaired elastogenesis in Hurler disease: dermatan sulfate accumulation linked to deficiency in elastin-binding protein and elastic fiber assembly.” Am J Pathol. 2000 March; 156(3):925-38 both of which are hereby incorporated by reference in their entireties.

In experiment [2] the test system is normal skin fibroblasts. Briefly: [3H]-valine incorporation into insoluble elastin, normal skin fibroblasts. On the procedure: as §1
Quintuplicate, 4 day-old cultures of dermal fibroblasts maintained in the presence and absence of indicated reagents were additionally exposed for the 3 following days to 20 μCi [^3H]-valine. At the end of incubation period, the cell layers were extensively washed with PBS, scraped and boiled in 500 μl of 0.1 N NaOH for 30 minutes, to solubilize all matrix components except elastin. The resulting pellets containing the insoluble elastin were then solubilized by boiling in 200 μl of 5.7 N HCl for 1 hour, and the aliquots were mixed in scintillation fluid and counted. Aliquots taken from each culture were also used for DNA determination, according to Rodems et al., using the DNeasy Tissue System from Qiagen. Final results reflecting amounts of metabolically labeled insoluble elastin in individual cultures were normalized per their DNA content, and expressed as CPM/1 μg DNA.

The subject of experiment [3] is fibroblasts derived from dermal scar tissue. Briefly: Elastin immunostaining in 7-day cultures of dermal scar fibroblasts. The protocol: as §1
7-day-old cultures of fibroblasts, which produce abundant ECM, were assessed. All cultures were fixed in cold 100% methanol at −20° C. for 30 min, and then incubated for 1 hour with 2 μg/ml of polyclonal antibody to tropoelastin. Cultures were then incubated for an additional hour with appropriate fluorescein-conjugated secondary antibody (GAR-FITC). Nuclei were counterstained with propidium iodide. Morphometric analysis of five separate cultures in each experimental group, immunostained with antibodies recognizing extracellular matrix components, was performed using a computerized video analysis system (Image-Pro Plus software 3.0, Media Cybernetics, Silver Spring, Md.) as described previously in Hinek et al. “Decreased elastin deposition and high proliferation of fibroblasts from Costello syndrome are related to functional deficiency in the 67-kD elastin-binding protein.” Am J Hum Genet. […]

Experiment [4] has the same test system. Briefly: [3H]-valine incorporation into insoluble elastin, dermal scar fibroblasts. As to conditions: 10 and 100 ng/ml IGF-I vs untreated control. On the procedure:
Biological effects of aldosterone and spironolactone were tested in cultures of dermal fibroblasts derived from normal skin, stretch-marked skin and dermal scars derived from Caucasian females, of different ages ranging from 30-38 years old. All fibroblasts were originally isolated by allowing them to migrate out of skin explants and then passaged by trypsinization and maintained in alpha-minimum essential medium supplemented with 20 mM Hepes, 1% antibiotics and antimycotics, 1% L-Glutamate and 2% fetal bovine serum (FBS) as previously described Hinek et al. “Impaired elastic-fiber assembly by fibroblasts from patients with either Morquio B disease or infantile GM1-gangliosidosis is linked to deficiency in the 67-kD spliced variant of beta-galactosidase.” Am J Hum Genet. 2000 July; 67(1):23-36 hereby incorporated by reference in its entirety. […]
Quintuplicate, 4 day-old cultures of dermal fibroblasts maintained in the presence and absence of indicated reagents were additionally exposed for the 3 following days to 20 μCi [^3H]-valine. […] The resulting pellets containing the insoluble elastin were then solubilized by boiling in 200 μl of 5.7 N HCl for 1 hour, and the aliquots were mixed in scintillation fluid and counted. […] Final results reflecting amounts of metabolically labeled insoluble elastin in individual cultures were normalized per their DNA content, and expressed as CPM/1 μg DNA.

Experiment [5] concerns skin biopsy explants derived from abdominal dermal scar. Briefly: Organ culture of dermal scar explants, Movat's pentachrome stain. The conditions noted are these: 5 μM AG1024 alone, with 50 nM aldosterone, or with aldosterone and 2 μM spironolactone. On the procedure:
In order to further test whether aldosterone and spironolactone would penetrate into skin tissue and affect elastogenesis, fragments of normal skin, stretch-marked skin and dermal scars were tested in organ culture system. Skin fragments were cut into multiple 1 mm^2 pieces and placed on top of metal grids immersed in culture medium containing 5% FBS and maintained for 10 days in the presence and absence of and then cultured for 7 days in the presence of 50 nM aldosterone, and 2 μM spironolactone, alone or in combinations, as described in figure legends. The media were changed every second day.
All organ cultures were fixed in 1% buffered formalin and their transversal serial histological sections were stained with Movat's pentachrome as previously described in Hinek et al. “Proteolytic digest derived from bovine Ligamentum Nuchae stimulates deposition of new elastin-enriched matrix in cultures and transplants of human dermal fibroblasts” J Dermatol Sci. September 2005; 39(3):155-66 hereby incorporated by reference in it's entirety. Morphometric analysis was performed as described above. In each analyzed group (three explants from each patient) low-power fields (1 mm^2) of 20 serial sections stained with Movat's pentachrome were analyzed and all structures stained black (elastic fibers) were counted.

For the compound `CC(=O)S[C@@H]1CC2=CC(=O)CC[C@]2(C)[C@H]2CC[C@@]3(C)[C@@H](CC[C@@]34CCC(=O)O4)[C@H]12` [spironolactone], the “elastin deposition in cells treated with increasing concentrations of aldosterone” value in experiment [1] (2 μM spironolactone added to 10 nM, 50 nM, 1 μM aldosterone, 7-day cultures) is “did not alter elastin deposition”.
On to “IGF-I: ligand of insulin growth factor receptor I, added at 10-100 ng/ml”, for which the “deposition of elastin (anti-elastin immunostaining)” value in experiment [1] (7-day cultures, 50 ng/ml IGF-I, 50 nM aldosterone, alone or together, vs untreated control) is given as “enhances the deposition of elastin”. For the same compound, in experiment [2] (50 ng/ml IGF-I, 50 nM aldosterone, alone or in combination), the “mature, insoluble elastin concentration ([3H]-valine incorporation)” value was “improved mature elastin concentrations over untreated control”. The “elastin deposition (anti-elastin immunostaining)” value is “increase in elastin depositions” in experiment [3] (10 ng/ml IGF-I vs untreated control) and “even greater elastin deposition” in experiment [3] (100 ng/ml IGF-I vs untreated control). Moreover, the “deposition of mature, insoluble elastin ([3H]-valine incorporation)” value in experiment [4] is reported as “dose dependent increase”.
Take `CC(C)(C)c1cc(C=C(C#N)C#N)cc(Br)c1O` [AG1024]: the “effect on aldosterone-enhanced deposition of elastin (immunostaining)” value in experiment [1] (50 nM aldosterone with 1 μg/ml αIGF-IR or 5 μM AG1024) was “inhibited”. Further, the “effect on IGF-I-enhanced deposition of elastin (immunostaining)” value in experiment [1] (50 ng/ml IGF-I with 1 μg/ml αIGF-IR or 5 μM AG1024) is on record as “inhibited”. Further, in experiment [2] (1 μg/ml αIGF-IR or 5 μM AG1024 with 50 ng/ml IGF-I or 50 nM aldosterone), the “mature elastin concentration in the presence of IGF-I or aldosterone ([3H]-valine incorporation)” value is recorded as “maintained at or below control levels”. The “elastin deposition in AG1024-treated explants (Movat's pentachrome)” value in experiment [5] is reported as “no net increase in elastin deposition”.
